Measured values: patent US7741337B2, “Azonafide derivatives, methods for their production and pharmaceutical compositions therefrom” (Unibioscreen S.A., priority 2005, dated 2010)

How the values were obtained:
A549 (Lung cancer) cells = experiment: Effect on cell migration, A549; format: cell-based; details: Homo sapiens, p value in same cell, read-out: Maximum effects (cell migration); for Emax at 0.01 µM: 22 hours on the 25% of most motile cells, at 10^−8 M
Method: (§1) Cells of different cancer lines, i.e. U-373 MG (Glioma cancer), PC3 (prostate cancer and A549 (Lung cancer) were seeded on culture flask 48 hours before the migration experiment. On the test day, cells were treated with or without the azonafide derivatives mentioned in table 3 in closed Falcon dishes containing a buffered medium at a controlled temperature (37.0±0.1° C.) for 12 or 22 hours, as noted in the right column of table 3. The azonafide derivatives were used at three non-cytotoxic concentrations (10^−6 M, 10^−7, 10^−8 M). Migration of the cells was observed by means of a CCD-camera mounted on a phase-contrast microscope. Statistical analysis of the migration, with the non-parametric Mann-Whitney test, was established for 25% and 50% of the most motile cells and for the entire cell population.

[1] = tested on: human cancer cell lines Hs683, U-373MG, HCT-15, LoVo, A549 and MCF-7; experiment: MTT test, effect on overall cell growth (mean of six cell lines, examples 3 to 26); format: cell-based; details: mean of six cell lines Hs683, U-373MG, A549, MCF-7, 72 hours incubation, range of molar concentrations resulting in 50% inhibition of overall tumor cells growth
Method: (§2) MTT tests were performed in order to rapidly, i.e. within 5 days, measure the effect of azonafide derivatives of this invention on the overall cell growth. The test measures the number of metabolically active living cells that are able to transform the yellow product 3-(4,5-dimethylthiazol-2-yl)-2,5-diphenyl tetrazolium bromide (herein referred as MTT) into the blue product formazan dye by mitochondrial reduction. The amount of formazan obtained at the end of the experiment, measured by means of a spectrophotometer, is directly proportional to the number of living cells. Optical density determination thus enables a quantitative measurement of the effect of the investigated compounds as compared to the control condition (untreated cells) and/or to other reference compounds.
(§3) Height human cancer cell lines described in table 1 were used in the following MTT tests. These cell lines cover six histological cancer types, being prostate, glioma, pancreas, colon, lung and breast cancers. Cells were allowed to grow in 96-well micro-wells with a flat bottom with an amount of 100 μl of cell suspension per well with 1,000 to 4,000 cells/well depending on the cell type used. Each cell line was seeded in a well known MEM 5% serum culture medium.
(§4) The detailed experimental procedure was as following: after a 24-hour period of incubation at 37° C., the culture medium was replaced by 100 μl of fresh medium in which the compound to be tested was dissolved at the following molar concentrations: 10^−9 M, 5.10^−9 M, 10^−8 M, 5.10^−8 M, 10^−7 M, 5.10^−7 M, 10^−6 M, 5.10^−6 M and 10^−5 M. Each experiment was repeated 6 times.
(§5) After 72 hours of incubation at 37° C. with (experimental conditions) or without (control condition) the compound to be tested, the medium was replaced by 100 μl MTT dissolved in RPMI at a concentration of 1 mg/ml. The micro-wells were subsequently incubated during 3 hours at 37° C. and centrifuged at 400 g during 10 minutes. MTT was removed and formazan crystals formed were dissolved in 100 μl DMSO. The micro-wells were shaken for 5 minutes and read on a spectrophotometer at wavelengths of 570 nm (maximum formazan absorbance) and 630 nm (back-ground noise).
(§6) For each experimental condition, the mean optical density was calculated, as well as the percentage of remaining living cells in comparison with the control.
(§7) IC50 values for compounds of examples 3 to 26 were obtained on cell lines Hs683, U-373MG, HCT-15, LoVo, A549 and MCF-7 described in Table 1. IC50 values for compounds from examples 27 to 45 were obtained on cell lines PC3, U-373MG, BxPC3, LoVo, A549 and MCF-7 described in Table 1.

[2] = tested on: U-373 MG, PC-3 and/or A549 cancer cells; experiment: Effect on cell migration, summary of table 3; format: cell-based, human; details: for migration level of cancer cells: U-373 MG, PC-3 and/or A549 cancer cells at the non-cytotoxic concentrations of this study; for cell migration activity compared with the closest compounds known in the art: comparison drawn from table 3
Method: as §1

[3] = patients receiving five daily doses of the drug; cited from earlier work
leukemia models = details: mice; cited from earlier work
[4] = tested on: human tumour xenografts with colon, lung and mammary cancers; details: mice with colon; cited from earlier work
[5] = tested on: primary human solid tumours; details: in vitro; Ajani et al. Invest New Drugs (1988) 6:79-83; cited from earlier work
[6] = tested on: PC3 (prostate cancer) cells; experiment: Effect on cell migration, PC3; format: cell-based; details: Homo sapiens, 22 hours on the 25% of most motile cells, p value in same cell, read-out: Maximum effects (cell migration); for Emax at 0.01 µM: at 10^−8 M
Method: as §1

[7] = tested on: multidrug resistant tumors; details: in vitro; U.S. Pat. No. 5,635,506; cited from earlier work
[8] = compared with amonafide; U.S. Pat. No. 5,635,506; cited from earlier work
[9] = tested on: human Myeloma 8226/DOX 40 cell line; details: U.S. Pat. No. 5,635,506; cited from earlier work
tumors = details: mice; compared with amonafide; U.S. Pat. No. 5,635,506; cited from earlier work
[10] = tested on: U-373 MG (Glioma cancer) cells; experiment: Effect on cell migration, U-373MG; format: cell-based; details: Homo sapiens, U373 MG, 22 hours on the 25% of most motile cells, p value in same cell, read-out: Maximum effects (cell migration); for Emax at 1 µM: at 10^−6 M
Method: as §1

[11] = tested on: human cancer cell lines PC3, U-373MG, BxPC3, LoVo, A549 and MCF-7; experiment: MTT test, effect on overall cell growth (mean of six cell lines, examples 27 to 45); format: cell-based; details: mean of six cell lines PC3, U-373MG, A549, MCF-7, 72 hours incubation, range of molar concentrations resulting in 50% inhibition of overall tumor cells growth
Method: as §2, §3, §4, §5, §6, §7

Row | SMILES | melting point [°C] | IC50 [1] [µM] | migration level of cancer cells [2] | cell migration activity compared with the closest compounds known in the art [2] | Emax at 0.01 µM [6] [%] | other results
1 | CN(C)CCN1C(=O)c2cccc3cc4cccc(/N=C\c5cc(O)ccc5O)c4c(c23)C1=O [Example 5, 11-{[(1Z)-(2,5-dihydroxyphenyl)methylidene}amino]-2-[2-(dimethylamino)ethyl]-1H-dibenzo[de,h]isoquinoline-1,3(2H)-dione] | 225 | > 10 | induced a decrease in the migration level | significantly greater cell migration activity than the closest compounds known in the art, or similar cell migration activity at significantly lower concentrations | – | Emax at 0.01 µM (A549 (Lung cancer) cells): -47%
2 | CN(C)CCN1C(=O)c2cccc3cc4cccc(/N=C\c5ccc6c(c5)OCO6)c4c(c23)C1=O [Example 7, 11-{[(1Z)-1,3-benzodioxol-5-ylmethylidene]amino}-2-[2-(dimethylamino)ethyl]-1H-dibenzo[de,h]isoquinoline-1,3(2H)-dione] | 198 | > 10 | induced a decrease in the migration level | – | – | Emax at 1 µM (A549 (Lung cancer) cells; 22 hours on the 100% of cells, at 10^−6 M): -20%
3 | CN(C)CCN1C(=O)c2cccc3cc(N)cc(c23)C1=O [amonafide] | – | – | – | – | – | myelotoxicity [3]: substantial myelotoxicity leading to some deaths; activity in leukemia models (leukemia models): only moderate activity; activity in human tumour xenografts [4]: no activity; activity in primary human solid tumours [5]: poor activity
4 | CN(C)CCN1C(=O)c2cccc3cc4c(N=Cc5cc(O)ccc5O)cccc4c(c23)C1=O (stereo in doubt) [Example 6, 8-{[(1Z)-(2,5-dihydroxyphenyl)methylidene]amino}-2-[2-(dimethylamino)ethyl]-1H-dibenzo[de,h]isoquinoline-1,3(2H)-dione] | 205 | 1 to 5 | induced a decrease in the migration level | significantly greater cell migration activity than the closest compounds known in the art, or similar cell migration activity at significantly lower concentrations | -24 | Emax at 0.01 µM (A549 (Lung cancer) cells): -29%
5 | CN(C)CCN1C(=O)c2cccc3cc4ccccc4c(c23)C1=O [azonafide, 2-[2′-(dimethylamino)ethyl]-1,2-dihydro-3H-dibenz(deh)isoquinoline-1,3-dione] | – | – | – | – | – | anti-tumor activity on multidrug resistant tumors [7]: showed anti-tumor activity; cardiotoxicity [8]: higher cardiotoxicity than amonafide; cross resistance [9]: possible three-fold cross resistance; appearance of tumors and tumor growth (tumors): delay the appearance of tumors and to reduce tumor growth in mice with more efficiency than amonafide
6 | CCCCCNC(=O)Nc1cccc2cc3cccc4c3c(c12)C(=O)N(CCN(C)C)C4=O [Example 13, 1-{2-[2-(dimethylamino)ethyl]-1,3-dioxo-2,3-dihydro-1H-dibenzo[de,h]isoquinolin-11-yl}-3-pentylurea] | – | 5 to 10 | induced a decrease in the migration level | significantly greater cell migration activity than the closest compounds known in the art, or similar cell migration activity at significantly lower concentrations | -43 | Emax at 0.1 µM ([10]; at 10^−7 M): -24%
7 | CN(C)CCN1C(=O)c2cccc3cc4c(/N=C/c5ccc6c(c5)OCO6)cccc4c(c23)C1=O [Example 8, 8-{[(1E)-1,3-benzodioxol-5-ylmethylidene]amino}-2-[2-(dimethylamino)ethyl]-1H-dibenzo[de,h]isoquinoline-1,3(2H)-dione] | – | 1 to 5 | induced a decrease in the migration level | significantly greater cell migration activity than the closest compounds known in the art, or similar cell migration activity at significantly lower concentrations | -29 | Emax at 1 µM [10]: -30%
8 | CN(C)CCN1C(=O)c2cccc3cc4cccc(NC(=S)Nc5ccc(OC(F)(F)F)cc5)c4c(c23)C1=O [Example 31, 1-{2-[2-(dimethylamino)ethyl]-1,3-dioxo-2,3-dihydro-1H-dibenzo[de,h]isoquinolin-11-yl}-3-[4-(trifluoromethoxy)phenyl]thiourea] | – | – | induced a decrease in the migration level | significantly greater cell migration activity than the closest compounds known in the art, or similar cell migration activity at significantly lower concentrations | – | Emax at 1 µM ([6]; at 10^−6 M): -30%; Emax at 1 µM [10]: -60%; IC50 [11]: > 10 µM
